The text below walks through data of PubChem BioAssay (NCI).

Assay in all cases: DTP human tumour cell line panel, 48 h
Experiment [1] relates to HCT-15 colon.
Experiment [2] concerns IGROV1 ovarian.
Experiment [3] deals with K-562 leukemia.
The test system of experiment [4] is KM12 colon.
Experiment [5] deals with SF-268 CNS.
Experiment [6] relates to SF-539 CNS.
Experiment [7] relates to SK-OV-3 ovarian.
Experiment [8] deals with SNB-19 CNS.
Experiment [9] relates to A498 renal.

Where “and” joins values, the source holds several entries; their conditions need not be identical. Equal entries are not always repeated.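 Where inhibition never reached the appropriate level, the endpoint shown equals the highest concentration tested. Otherwise, values were interpolated linearly from a five-concentration, 48-hour dose response in 96-well plates. Here, GI50 denotes the concentration required for 50% inhibition of growth. TGI: total growth inhibition.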

As usually defined, the TGI is the concentration at which net growth stops. A higher TGI goes with lower sensitivity of the cells. As to `O=S(=O)(/C=C/c1ccc(F)cc1)Cc1ccc(CS(=O)(=O)/C=C/c2ccc(F)cc2)cc1`, the concentration for total growth inhibition (TGI) in experiment [1], in experiment [2], in experiment [3], in experiment [4], in experiment [5] and in experiment [6] was over 100 µM throughout. The TGI in experiment [7] and in experiment [8] was over 100 µM throughout.

Turning to `C[C@H](OCc1ccccc1)C(=O)N1CCS(=O)(=O)N2CCC[C@@H]2C1=O`, the TGI in [9], in experiment [1], in [2], in [3], in experiment [4] and in [5] was over 100 µM throughout. Besides, the TGI in experiment [6], in [7] and in [8] was over 100 µM each time.

For `O=C1C(c2ccccc2)=C(O)c2cccc3cccc1c23`, the TGI in experiment [9], in experiment [1], in experiment [2], in experiment [3], in experiment [4] and in experiment [5] was over 100 µM throughout. Further, the TGI in [6], in experiment [7] and in [8] was over 100 µM each time.

On to `Cc1ccc2c(c1)-c1c3c(nn1-c1ccccc1)-c1ccccc1SC3O2` (stereo not drawn), for which the TGI in experiment [9], in [2], in experiment [3], in [4], in experiment [5] and in experiment [6] was over 100 µM throughout. Moreover, the concentration for total growth inhibition (TGI) in [7] was over 100 µM.

For the molecule `OC(CCNC12CC3CC(CC(C3)C1)C2)c1ccccc1` (stereo not drawn), the TGI in [9], in experiment [1], in experiment [2], in experiment [4], in experiment [5] and in experiment [6] was over 100 µM throughout. Further, the TGI in experiment [7] and in experiment [8] was over 100 µM in each case.

Broadly, the GI50 is the concentration at which growth is held to half of that of the control. `COc1ccc(/C=C/c2cc(OC)c(OC)c(OC)c2)cc1`: the TGI is over 100 µM in [9]; over 93.5 µM in experiment [1]; over 100 µM in [2]; over 100 µM in [3]; over 100 µM in experiment [4]; over 85.3 µM in experiment [5]. Also, the TGI is 13.6 µM in experiment [6], over 94.6 µM in experiment [7] and over 100 µM in experiment [8]. In addition, the GI50 in experiment [3] is 34 µM.

In the case of `COc1cc2ccnc3c2c(c1OC)-c1coc(SC)c1-3`, the TGI in [9], in experiment [1], in experiment [2], in experiment [3], in [4] and in experiment [5] was over 100 µM each time. For the same molecule, the TGI in [6], in experiment [7] and in experiment [8] was over 100 µM throughout.

Consider `CCOc1cc2c(C(=O)CC)c(O)ccc2o1`, for which the TGI in experiment [9] is over 94.4 µM; in experiment [1], over 100 µM; in experiment [2] it was over 100 µM; in experiment [3] it was over 81.7 µM; in experiment [4], over 100 µM; in experiment [5], over 100 µM. The TGI in experiment [6] is over 100 µM; in experiment [7] it was over 93.6 µM; in experiment [8], over 100 µM.

With `C=C/C=C/NC(=O)OCc1ccccc1`, the TGI in [2], in experiment [3], in [4], in [5], in experiment [7] and in experiment [8] was over 100 µM each time.

For `O=C(c1ccc(Cl)cc1Cl)C1[C@H]2C(=O)N(c3ccc(Cc4ccc(N5C(=O)[C@@H]6ON(c7ccccc7)C(C(=O)c7ccc(Cl)cc7Cl)[C@@H]6C5=O)cc4)cc3)C(=O)[C@H]2ON1c1ccccc1` (stereo partly drawn), the total growth inhibition concentration (TGI) in experiment [9], in experiment [1], in experiment [2], in [3], in experiment [4] and in experiment [5] was over 50 µM in each case. The TGI in [6], in experiment [7] and in experiment [8] was over 50 µM throughout.

For the molecule `CC(CN(C)C)/C(=N\Nc1ccccc1)c1ccccc1` (stereo not drawn), the TGI in [9] is over 100 µM; in experiment [1], 11.1 µM; in experiment [2], over 100 µM; in experiment [3], 0.527 µM; in [4], 14.4 µM; in [5] it was 16.6 µM. In addition, the TGI was determined as 0.774 µM in experiment [6], 84.1 µM in experiment [7] and 34.4 µM in experiment [8].

For `COc1c(O)c2c3c(cc(C)cc3c1C(C)C)OC2`, the TGI in [1], in [2], in experiment [3], in experiment [4], in [5] and in [6] was over 100 µM in each case. Further, the TGI in [7] and in experiment [8] was over 100 µM each time.

For the molecule `NNC(=O)C1CCC(=O)N1S(=O)(=O)c1ccccc1` (stereo not drawn), the TGI in [1], in [2], in experiment [3], in experiment [4], in experiment [5] and in experiment [6] was over 100 µM each time. Moreover, the TGI in [7] and in [8] was over 100 µM each time.

For the molecule `CCOC(C[C@H](O[Si](C)(C)C(C)(C)C)[C@H]1COC(=S)S1)OCC`, the total growth inhibition concentration (TGI) in [1], in [3], in experiment [4], in experiment [5], in experiment [6] and in experiment [8] was over 100 µM each time.

`COc1cc2c[n+](C)c3c4cc(OC)c(OC(C)C)cc4ccc3c2cc1OC`: the TGI in experiment [1], in experiment [2], in [3], in [4], in experiment [5] and in experiment [6] was over 100 µM each time. The TGI in experiment [7] and in experiment [8] was over 100 µM throughout.

With `C[C@@]12CCC(=O)c3coc(c31)C(=O)c1cc3c(cc12)C(=O)C=CC3=O`, the TGI in [9] is over 100 µM; in [1], > 1 µM and 32.7 µM; in [2], > 1 µM and 59.3 µM; in experiment [3], over 56.9 µM; in experiment [4], over 61.6 µM; in experiment [5], > 1 µM and 38 µM. For the same molecule, the TGI in experiment [6] is > 1 µM and 31.7 µM; in experiment [7] it was over 100 µM; in experiment [8], over 100 µM. Also, the GI50 is over 1 µM in [1]; over 1 µM in experiment [2]; over 1 µM in [3]; over 1 µM in [4]; over 1 µM in experiment [5]; under 1 µM in experiment [6]. For the same molecule, the GI50 in experiment [7] and in experiment [8] was over 1 µM each time.

For the molecule `CSc1nnc(CCC(=O)Nc2c(C)cccc2C)o1`, the TGI in experiment [9], in experiment [1], in experiment [2], in experiment [3], in experiment [4] and in experiment [5] was over 100 µM each time. For the same molecule, the TGI in [6], in [7] and in [8] was over 100 µM in each case.

Consider `O=C1C=CC(=O)C2=C1[C@@H](O)C1CC=CC3C(=O)O[C@@H]2C31` (stereo partly drawn), for which the TGI is over 100 µM in experiment [9]; 44.1 µM in experiment [1]; 22.6 µM in experiment [2]; over 61.5 µM in experiment [3]; 41.2 µM in [4]; over 70.6 µM in experiment [5]. Also, the concentration for total growth inhibition (TGI) was over 58.6 µM in experiment [6], over 100 µM in experiment [7] and over 100 µM in experiment [8].

Turning to `CCOC(=O)CC[C@H](NC(=O)c1nc[nH]c1[N+](=O)[O-])C(=O)OCC`, the TGI in experiment [9], in experiment [1], in experiment [2], in [3], in [4] and in experiment [5] was over 100 µM throughout. Further, the TGI in experiment [6], in experiment [7] and in experiment [8] was over 100 µM each time.

On to `CCOC(=O)/C(C1=NCCN1)=C(\O)c1ccccc1`, for which the TGI in experiment [1], in experiment [2], in [3], in [4], in [5] and in experiment [6] was over 100 µM throughout. Besides, the TGI in experiment [8] is over 100 µM.

Regarding `O=C1CCCCC1S(=O)(=O)c1ccccc1` (stereo not drawn), the total growth inhibition concentration (TGI) in experiment [9], in [1], in experiment [2], in [3], in experiment [4] and in experiment [5] was over 100 µM each time. In addition, the concentration for total growth inhibition (TGI) in experiment [6], in experiment [7] and in [8] was over 100 µM each time.

Take `CCCCCCCCCCCCCCCC(=O)OCC1OC(n2cc(F)c(=O)[nH]c2=O)C(N)C(O)C1O` (stereo not drawn): the TGI came to 61.3 µM in [9]; 32.8 µM in experiment [3]; 33.3 µM in experiment [4]; 35.2 µM in [5]; 34.8 µM in experiment [6]; 45.7 µM in experiment [7]. The molecule further registered a TGI in experiment [8] of 39.2 µM.

Consider `Cc1cn(C2CC3C(COCN3O)O2)c(=O)[nH]c1=O` (stereo not drawn), for which the TGI in [1], in experiment [2], in experiment [3], in experiment [4], in experiment [5] and in [6] was over 100 µM in each case. The TGI in [7] and in experiment [8] was over 100 µM in each case.

`Cc1ccccc1C1OC(=O)c2ccc3ccccc3c21` (stereo not drawn): the TGI in experiment [9] was 8.51 µM; in [1] it was 9.44 µM; in experiment [2] it was over 31.6 µM; in experiment [3], 19.5 µM; in experiment [4], 13.7 µM; in experiment [5] it was 14.8 µM. In addition, the TGI was 13.4 µM in experiment [6], 8.37 µM in experiment [7] and over 91.5 µM in experiment [8].

`O=[N+]([O-])c1ccc(-n2nnc(C3=NCCN3)c2-c2ccccc2)cc1`: the TGI in experiment [9], in [1], in [2], in [3], in [4] and in experiment [5] was over 100 µM throughout. Besides, the TGI in [6], in [7] and in experiment [8] was over 100 µM each time.

In the case of `Cc1nc(Nc2ccccc2)sc1C(=O)CC(=O)C(=O)Nc1c(C(C)C)cccc1C(C)C`, the TGI in experiment [1], in experiment [2], in experiment [3], in experiment [4], in experiment [5] and in [6] was over 100 µM throughout. For the same molecule, the TGI in experiment [7] and in [8] was over 100 µM throughout.

`C=C1CC2OC(=O)C(=C)C2C(O)C2C(=C)CCC12` (stereo not drawn): the TGI came to 17.5 µM in experiment [9]; 35.5 µM in experiment [2]; 30.5 µM in experiment [3]; 22.6 µM in experiment [4]; 32.3 µM in experiment [5]; 11.5 µM in experiment [6]. For the same molecule, the TGI was 24.9 µM in experiment [7] and 30.8 µM in [8].

As to `c1cncc(C2N3CCCCC3[C@@H]3c4[nH]c5ccccc5c4CCN23)c1` (stereo partly drawn), the TGI in [9], in experiment [1], in experiment [2], in experiment [3], in [5] and in [6] was over 100 µM each time. Moreover, the TGI in experiment [7] and in experiment [8] was over 100 µM throughout.

`OC1(C23CC4CC(CC(C4)C2)C3)CSCC1(O)C12CC3CC(CC(C3)C1)C2` (stereo not drawn): the TGI in experiment [2], in [3], in experiment [4], in [5], in [6] and in [7] was over 100 µM throughout. Besides, the TGI in experiment [8] is over 100 µM.

`CCCCCCC[CH2][Sn]([CH2]CCCCCCC)([O]c1cccc2cccnc12)[O]c1cccc2cccnc12`: the GI50 is 2.62 µM in [9]; 2.53 µM in experiment [1]; 2.19 µM in experiment [2]; 0.586 µM in experiment [3]; 1.91 µM in experiment [4]; 2.68 µM in experiment [5]. In addition, the GI50 in experiment [6] was 2.05 µM; in experiment [8], 2.94 µM. The TGI in experiment [9] stood at 5.85 µM; in experiment [1], 10.8 µM; in [2], 5.26 µM; in experiment [3], 3.86 µM; in experiment [4] it was 4.19 µM; in experiment [5] it was 10.7 µM. Moreover, the TGI in experiment [6] is 4.68 µM; in experiment [8], 9.31 µM.
